The values below come from PMC12104861, “Structural and mechanistic basis for the regulation of the chloroplast signal recognition particle by (p)ppGpp” (Febs Letters, 2025).

One assay concerns the target T1, (cp)SRP54 (Arabidopsis thaliana, UniProt P37107).
T1 construct: gene FFC; residues 79-564 (transit peptide removed), NG and M domains, hexa-histidine tag kept, expressed in E. coli BL21(DE3) Rosetta
T1 sequence (P37107 79-564): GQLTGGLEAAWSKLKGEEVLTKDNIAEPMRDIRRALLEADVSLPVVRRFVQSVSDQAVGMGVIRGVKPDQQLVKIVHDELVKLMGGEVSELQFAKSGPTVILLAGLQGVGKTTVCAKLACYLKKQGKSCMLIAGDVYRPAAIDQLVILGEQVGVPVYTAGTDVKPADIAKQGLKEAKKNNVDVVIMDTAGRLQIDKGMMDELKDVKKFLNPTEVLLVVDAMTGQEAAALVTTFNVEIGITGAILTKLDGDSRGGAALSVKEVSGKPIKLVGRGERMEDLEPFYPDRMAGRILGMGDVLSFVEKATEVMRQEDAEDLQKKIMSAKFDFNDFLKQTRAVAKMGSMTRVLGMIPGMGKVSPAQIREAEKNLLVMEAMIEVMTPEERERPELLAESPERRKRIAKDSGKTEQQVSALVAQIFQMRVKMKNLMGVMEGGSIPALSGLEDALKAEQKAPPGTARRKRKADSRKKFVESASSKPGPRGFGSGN
Nature of the assay: isothermal titration calorimetry. It counts as binding. The text has this:
isothermal titration calorimetry on (cp)SRP54

For assay [1], the target named is T2, (cp)FtsY‐NG (Arabidopsis thaliana, UniProt O80842).
T2 construct: gene CPFTSY
T2 sequence (O80842 65-366): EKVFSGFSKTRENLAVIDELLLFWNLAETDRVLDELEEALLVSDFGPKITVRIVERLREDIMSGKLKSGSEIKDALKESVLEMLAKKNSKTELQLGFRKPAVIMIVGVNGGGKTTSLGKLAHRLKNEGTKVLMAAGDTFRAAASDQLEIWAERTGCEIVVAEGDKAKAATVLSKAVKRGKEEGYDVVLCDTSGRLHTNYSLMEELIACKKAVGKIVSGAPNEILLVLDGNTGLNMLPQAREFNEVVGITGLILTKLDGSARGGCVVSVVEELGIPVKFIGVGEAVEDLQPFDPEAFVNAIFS
Nature of the assay: isothermal titration calorimetry. Type of assay: binding. The text has this: isothermal titration calorimetry on (cp)FtsY‐NG

Assay [2] deals with T3, (cp)SRP54:FtsY‐NG complex (Arabidopsis thaliana, UniProt O80842+P37107).
T3 construct: gene FFC; GTPase heterodimer mixed from the two His-tagged proteins: SRP54 residues 79-564 and FtsY NG domain residues 65-366
T3 sequence (P37107 79-564): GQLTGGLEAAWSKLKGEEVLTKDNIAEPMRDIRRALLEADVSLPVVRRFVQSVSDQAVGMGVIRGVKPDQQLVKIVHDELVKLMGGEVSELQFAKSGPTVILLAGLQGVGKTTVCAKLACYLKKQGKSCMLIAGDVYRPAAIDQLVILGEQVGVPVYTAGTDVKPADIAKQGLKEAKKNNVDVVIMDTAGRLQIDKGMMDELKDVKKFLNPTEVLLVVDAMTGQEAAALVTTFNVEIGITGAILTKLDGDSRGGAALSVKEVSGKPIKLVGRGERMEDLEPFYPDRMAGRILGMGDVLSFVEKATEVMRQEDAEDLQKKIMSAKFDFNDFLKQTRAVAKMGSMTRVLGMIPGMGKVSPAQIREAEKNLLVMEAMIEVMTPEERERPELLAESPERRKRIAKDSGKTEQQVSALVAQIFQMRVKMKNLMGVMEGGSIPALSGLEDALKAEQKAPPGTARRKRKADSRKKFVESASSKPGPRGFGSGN
T3 sequence (O80842 65-366): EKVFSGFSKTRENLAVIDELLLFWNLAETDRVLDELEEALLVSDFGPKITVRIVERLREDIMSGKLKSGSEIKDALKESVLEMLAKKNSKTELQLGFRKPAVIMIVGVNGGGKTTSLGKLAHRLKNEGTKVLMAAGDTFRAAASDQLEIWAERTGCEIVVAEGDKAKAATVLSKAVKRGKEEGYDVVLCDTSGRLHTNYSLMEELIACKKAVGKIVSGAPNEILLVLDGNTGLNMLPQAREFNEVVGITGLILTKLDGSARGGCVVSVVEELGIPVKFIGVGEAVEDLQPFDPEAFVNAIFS
Nature of the assay: HPLC GTP hydrolysis assay. Type of assay: biochemical. The note with it: 10 μM each protein, 500 μM GTP, pH 7.5, 10 mM Mg(OAc)2, 37 °C.

The target of assay [3] is T3, (cp)SRP54:FtsY‐NG complex. Nature of the assay: analytical size-exclusion chromatography of complex formation. Type of assay: binding. The conditions noted are these: nonhydrolysable GTP analogue promotes the heterodimer; 20 mM HEPES-K pH 7.5, 20 mM MgCl2.
Assay [4] has as its target T2, (cp)FtsY‐NG. Nature of the assay: X-ray crystal structure, […] Å. The note with it: Mg2+; canonical guanosine nucleotide-binding site; 100 mM Tris pH 8.5, 25% PEG1000.
Assay [5] deals with T3, (cp)SRP54:FtsY‐NG complex. Nature of the assay: HPLC GTP hydrolysis assay. It counts as biochemical. The note with it: read-out: residual GTPase activity (% GTP hydrolysed) at 10 mM, 30 min.
For assay [6], the target named is T4, chloroplast signal recognition particle 54 kDa protein, (cp)SRP54 (Arabidopsis thaliana, UniProt P37107 79-564).
T4 construct: Arabidopsis thaliana (cp)SRP54, UniProt P37107, residues 79-564; the methods give residues 79-564; source: E. coli BL21 (DE3) Rosetta, purified (HisTrap FF, EDTA incubation, SEC Superdex 200)
T4 sequence (looked up): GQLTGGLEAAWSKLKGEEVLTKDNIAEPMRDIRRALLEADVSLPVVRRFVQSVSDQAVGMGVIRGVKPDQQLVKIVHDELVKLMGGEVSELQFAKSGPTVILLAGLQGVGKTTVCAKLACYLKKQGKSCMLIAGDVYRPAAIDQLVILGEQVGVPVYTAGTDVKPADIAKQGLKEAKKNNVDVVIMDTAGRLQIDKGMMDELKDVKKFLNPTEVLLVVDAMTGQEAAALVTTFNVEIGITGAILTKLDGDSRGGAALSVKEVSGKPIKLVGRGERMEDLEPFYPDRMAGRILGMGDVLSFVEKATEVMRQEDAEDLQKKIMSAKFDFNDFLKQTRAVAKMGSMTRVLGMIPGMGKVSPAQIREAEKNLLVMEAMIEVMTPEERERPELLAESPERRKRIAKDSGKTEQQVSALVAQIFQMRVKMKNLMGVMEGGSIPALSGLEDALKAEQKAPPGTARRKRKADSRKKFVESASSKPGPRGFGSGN
Nature of the assay: SEC; analytical SEC, Superdex 200 Increase 10/300 GL; 100 uM of each protein in buffer C (20 mM HEPES-K pH 7.5, 200 mM NaCl, 20 mM KCl, 20 mM MgCl2) with increasing GppNHp; 30 min at room temperature; also 0.5 mM GppNHp with increasing ppGpp or pppGpp, which disrupt the complex. The conditions noted are these: both partners purified.

Turning to `Nc1nc2c(ncn2[C@@H]2O[C@H](COP(=O)(O)OP(=O)(O)O)[C@@H](O)[C@H]2O)c(=O)[nH]1` [GDP], the Kd is 23.5 ± 2.29 µM at (cp)SRP54 and 7.71 ± 0.4 µM at (cp)FtsY‐NG [1].
Regarding `Nc1nc2c(ncn2[C@@H]2O[C@H](COP(=O)(O)OP(=O)(O)OP(=O)(O)O)[C@@H](O)[C@H]2O)c(=O)[nH]1` [GTP], the Kd at (cp)SRP54 turned out to be 51.8 ± 3.54 µM; at (cp)FtsY‐NG [1] it was 11.9 ± 2.44 µM. The “HPLC GTP hydrolysis assay” value in assay [2] is on record as “significantly enhanced when in complex, hydrolysing nearly all available GTP”.
With `Nc1nc2c(ncn2[C@@H]2O[C@H](COP(=O)(O)OP(=O)(O)NP(=O)(O)O)[C@@H](O)[C@H]2O)c(=O)[nH]1` [GppNHp], the “analytical size-exclusion chromatography of complex formation” value in assay [3] is “visualized the complex between (cp)SRP54 and (cp)FtsY‐NG at increasing concentrations of GppNHp”.
As for `Nc1nc2c(ncn2[C@@H]2O[C@H](COP(=O)(O)OP(=O)(O)O)[C@@H](OP(=O)(O)OP(=O)(O)O)[C@H]2O)c(=O)[nH]1` [ppGpp], the results for the Kd at (cp)SRP54 and on (cp)FtsY‐NG [1] were 32.5 ± 5.38 µM and 7.36 ± 1.46 µM, respectively. The “X-ray crystal structure, 1.99 Å” value on (cp)FtsY‐NG [4] is on record as “solve the crystal structure of the truncated form of (cp)FtsY from A. thaliana”. In addition, in assay [5], the remaining activity at 10000 µM was about 20%.
Turning to `Nc1nc2c(ncn2[C@@H]2O[C@H](COP(=O)(O)OP(=O)(O)OP(=O)(O)O)[C@@H](OP(=O)(O)OP(=O)(O)O)[C@H]2O)c(=O)[nH]1` [pppGpp], the results for the Kd on (cp)SRP54 and at (cp)FtsY‐NG [1] were 47.8 ± 3.52 µM and 27.6 ± 3.64 µM, respectively. Further, the remaining activity at 10000 µM in assay [5] was about 20%.

B1: NG domain of the chloroplast SRP receptor (cp)FtsY, (cp)FtsY-NG (domain or fragment, Arabidopsis thaliana, UniProt O80842 65-366, looked up)
chain: EKVFSGFSKTRENLAVIDELLLFWNLAETDRVLDELEEALLVSDFGPKITVRIVERLREDIMSGKLKSGSEIKDALKESVLEMLAKKNSKTELQLGFRKPAVIMIVGVNGGGKTTSLGKLAHRLKNEGTKVLMAAGDTFRAAASDQLEIWAERTGCEIVVAEGDKAKAATVLSKAVKRGKEEGYDVVLCDTSGRLHTNYSLMEELIACKKAVGKIVSGAPNEILLVLDGNTGLNMLPQAREFNEVVGITGLILTKLDGSARGGCVVSVVEELGIPVKFIGVGEAVEDLQPFDPEAFVNAIFS
notes: source: E. coli BL21 (DE3) Rosetta, purified (HisTrap FF, EDTA incubation, SEC Superdex 200)
As to B1, in assay [6], the binding result is “binds”.
